Test results as given in patent publication US20220125878A1, “Compositions and Methods for Preventing the Interaction Between SARS-COV-2 and L-Sign” (priority 2020, published 2022).

Assays:
human L-SIGN = biological target: T1, human L-SIGN (Homo sapiens, UniProt Q9H2X3); assay: Flow cytometry of Spike/Fc binding to L-SIGN-expressing HEK293T cells; conditions: EGTA 1 mM
T1 construct: host or cells: HEK293T
T1 sequence (Q9H2X3 1-399): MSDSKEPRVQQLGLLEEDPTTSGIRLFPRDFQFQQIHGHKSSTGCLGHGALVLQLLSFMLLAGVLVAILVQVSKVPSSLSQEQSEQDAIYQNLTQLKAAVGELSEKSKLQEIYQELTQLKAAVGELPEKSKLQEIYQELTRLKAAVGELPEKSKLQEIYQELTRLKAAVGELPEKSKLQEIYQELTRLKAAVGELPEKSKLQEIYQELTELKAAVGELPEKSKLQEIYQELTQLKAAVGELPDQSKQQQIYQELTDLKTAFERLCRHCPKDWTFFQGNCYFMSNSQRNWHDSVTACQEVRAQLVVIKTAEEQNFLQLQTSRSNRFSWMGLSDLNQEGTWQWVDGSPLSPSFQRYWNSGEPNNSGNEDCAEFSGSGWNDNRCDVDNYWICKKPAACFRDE

SARS-CoV-2 spike protein = biological target: T2, SARS-CoV-2 spike protein (Severe acute respiratory syndrome coronavirus 2, UniProt P0DTC2); format: binding
T2 construct: host or cells: HEK293T

[1] = system: high-mannose type N-glycans on spike protein-expressing HEK293T cells; assay: Flow cytometry of GNL lectin binding to spike protein-expressing HEK293T cells; format: cell-based; conditions: spike protein-expressing HEK293T cells treated with kifunensine 10 μM, 48 h
[2] = system: VSVG-type pseudo-typed virus; format: cell-based
[3] = system: SARS-CoV-2-type pseudo-typed virus (CoV2-type); format: cell-based

Compound | blocking of the interaction of Spike/Fc with L-SIGN (human L-SIGN) | inhibition of L-SIGN/Fc binding to spike protein-expressing HEK293T cells (SARS-CoV-2 spike protein) | effect of treatment on binding of spike protein to GNL [1] | effect of treatment on binding of spike protein to L-SIGN/Fc (SARS-CoV-2 spike protein) | blocking of control VSVG-type infection (% infection efficiency) [2] | blocking of L-SIGN-mediated CoV2-type infection (% infection efficiency) [3]
O=C(O)CN(CCOCCOCCN(CC(=O)O)CC(=O)O)CC(=O)O [EGTA] | blocked | inhibited |  |  |  | 
O=C1N[C@@H]2[C@@H](O)[C@@H](O)[C@H](O)[C@@H](CO)N2C1=O [Kifunensine] |  |  | enhanced | enhanced |  | 
mannan |  | inhibited |  |  | but not control VSVG-type infection | dose-dependently blocked
